Results from PubChem BioAssay (NCI).
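Grown in 96-well plates, cells were treated for 48 hours with each compound at five concentrations. Insufficient inhibition: endpoint recorded as highest concentration tested. Abbreviation: GI50, concentration required for 50% inhibition of growth. TGI marks complete inhibition of growth.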

Experiments:
Experiment in all cases: inhibition of tumour cell growth, NCI panel, 48 h
SNB-19 CNS = test system: SNB-19 CNS
UO-31 renal = test system: UO-31 renal
SK-MEL-28 melanoma = test system: SK-MEL-28 melanoma
NCI-H226 lung = test system: NCI-H226 lung
HCC-2998 colon = test system: HCC-2998 colon
SN12C renal = test system: SN12C renal
786-0 renal = test system: 786-0 renal
IGROV1 ovarian = test system: IGROV1 ovarian
NCI-H23 lung = test system: NCI-H23 lung
RPMI-8226 leukemia = test system: RPMI-8226 leukemia

| Structure (SMILES) | TGI (SNB-19 CNS) [µM] | TGI (UO-31 renal) [µM] | TGI (SK-MEL-28 melanoma) [µM] | TGI (NCI-H226 lung) [µM] | TGI (HCC-2998 colon) [µM] | TGI (SN12C renal) [µM] | TGI (786-0 renal) [µM] | TGI (IGROV1 ovarian) [µM] | TGI (NCI-H23 lung) [µM] | TGI (RPMI-8226 leukemia) [µM] | GI50 (SNB-19 CNS) [µM] | GI50 (UO-31 renal) [µM] | GI50 (SK-MEL-28 melanoma) [µM] | GI50 (NCI-H226 lung) [µM] | GI50 (HCC-2998 colon) [µM] | GI50 (SN12C renal) [µM] | GI50 (786-0 renal) [µM] | GI50 (IGROV1 ovarian) [µM] | GI50 (NCI-H23 lung) [µM] | GI50 (RPMI-8226 leukemia) [µM] |
| --- | --- | --- | --- | --- | --- | --- | --- | --- | --- | --- | --- | --- | --- | --- | --- | --- | --- | --- | --- | --- |
| COc1cc2c(cc1OC)[C@H]1C(COC(=O)c3ccccc3)CSC(=Nc3ccccc3)N1CC2 (stereo not given in full) | > 100 | > 100 | > 100 | > 100 | > 100 | > 100 | > 100 | > 100 | > 100 | > 100 | – | – | – | – | – | – | – | – | – | – |
| CCCCCCCCCCCCOC1C(C(COC2OC(C3COC(C)(C)O3)C3OC(C)(C)OC23)NC(=O)NS(=O)(=O)c2ccccc2)OC2OC(C)(C)OC21 (stereo not given) | 40 | 19.7 | 28 | 45.8 | 12.8 | 15.2 | 11.6 | 11.2 | 19.3 | 6.77 | 9.18 | 5.16 | 9.61 | 6 | 3.24 | 3.95 | 3.51 | 2.53 | 4.34 | 1.95 |
| Cc1ccc2c(c1)C(C)Cc1c(Cl)ncnc1N2C (stereo not given) | 49.7 | 45.2 | 48.7 | 5.34 | 18.3 | 13.7 | 17.8 | 36.4 | 22.7 | 17.2 | 4.89 | 3.03 | 0.905 | 2.03 | 3.54 | 3.64 | 3.25 | 3.39 | 3.29 | 3.56 |
| Nc1c([N+](=O)[O-])cc2c3c(cccc13)CC2 | > 100 | > 100 | > 100 | > 100 | > 100 | > 100 | > 100 | > 100 | > 100 | > 100 | – | – | – | – | – | – | – | – | – | – |
| CC(C)c1c(O)ccc2c1CCC1C(C)(C)CCCC21C (stereo not given) | 32.3 | 31.4 | 38.1 | 33.6 | 37.2 | 27.8 | 32.2 | 30 | 31.8 | 49.3 | – | – | – | – | – | – | – | – | – | – |
| O=[N+]([O-])c1cc(C2SCc3nc4ccccc4n32)ccc1Cl (stereo not given) | > 100 | 58.6 | > 100 | 61.8 | 34.3 | 33.8 | > 100 | > 100 | 78.1 | 60.2 | – | – | – | – | – | – | – | – | – | – |
| O=C(O)CNS(=O)(=O)c1ccc(NC(=O)CI)cc1 | > 100 | 39.5 | 72.4 | > 100 | > 100 | > 100 | 28.6 | > 100 | 39.8 | 38.6 | – | – | – | – | – | – | – | – | – | – |
